Values quoted from earlier work as cited in patent publication US12253499B2, “Thin-layer chromatography system and method for assessing analyte concentrations in samples” (UCL BUSINESS LTD, priority 2017, dated 2025).
Where two headings read alike, the source gives them in different places.

Key:
[1] = inter-individual variability
[2] = for Therapeutic window / Therapeutic window (μg/mL): Leading candidate drugs for TDM
[3] = relative to Irinotecan
topoisomerase I = target: T1, topoisomerase I (Homo sapiens, UniProt P11387); details: relative to Irinotecan
T1 sequence (P11387 1-765): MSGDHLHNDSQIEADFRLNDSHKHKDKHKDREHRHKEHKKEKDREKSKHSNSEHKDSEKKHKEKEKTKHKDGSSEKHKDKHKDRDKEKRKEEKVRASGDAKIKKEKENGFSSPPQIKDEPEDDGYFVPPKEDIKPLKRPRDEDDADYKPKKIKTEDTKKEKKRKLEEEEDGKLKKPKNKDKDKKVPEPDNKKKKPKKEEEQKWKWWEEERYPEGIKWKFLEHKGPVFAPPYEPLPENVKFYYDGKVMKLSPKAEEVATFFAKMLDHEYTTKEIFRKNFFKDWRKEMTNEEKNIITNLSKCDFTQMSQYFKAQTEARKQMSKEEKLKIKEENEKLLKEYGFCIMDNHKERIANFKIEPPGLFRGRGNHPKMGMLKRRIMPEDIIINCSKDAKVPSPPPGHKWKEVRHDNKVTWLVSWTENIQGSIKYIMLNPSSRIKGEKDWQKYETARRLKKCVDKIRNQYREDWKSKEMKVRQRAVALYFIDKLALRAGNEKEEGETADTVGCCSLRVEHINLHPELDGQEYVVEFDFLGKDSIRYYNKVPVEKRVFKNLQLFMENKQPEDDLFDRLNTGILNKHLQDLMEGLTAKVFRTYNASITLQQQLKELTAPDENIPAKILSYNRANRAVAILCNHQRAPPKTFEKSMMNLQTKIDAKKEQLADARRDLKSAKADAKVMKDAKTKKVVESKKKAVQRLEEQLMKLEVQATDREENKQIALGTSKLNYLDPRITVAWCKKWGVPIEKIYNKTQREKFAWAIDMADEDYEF

[4] = Table D, In-depth list of candidate drugs
[5] = Table D, In-depth list of candidate drugs, given as daily dose

Compound | Window [2, 4] | further results
O=c1[nH]cc(F)c(=O)[nH]1 [5-fluoruoracil, 5-fluorouracil] | 2000 to 3000 µg/mL | Plasma drug concentrations vary [1]: ≤ 100 fold; Therapeutic window ([2]; Table D): 2000 to 3000 µg/mL
NCC[C@H](O)C(=O)N[C@@H]1C[C@H](N)[C@@H](O[C@H]2O[C@H](CN)[C@@H](O)[C@H](O)[C@H]2O)[C@H](O)[C@H]1O[C@H]1O[C@H](CO)[C@@H](O)[C@H](N)[C@H]1O [Amikacin] | 5 to 15 µg/mL | –
CCCCc1oc2ccccc2c1C(=O)c1cc(I)c(OCCN(CC)CC)c(I)c1 [Amiodarone] | 0.5 to 2 µg/mL | Therapeutic window (μg/mL) ([2]; Table D): 0.5-2^ μg/mL
CS(=O)(=O)OCCCCOS(C)(=O)=O [Busulfan] | 0.9 to 1 µg/mL | –
NC(=O)N1c2ccccc2C=Cc2ccccc21 [Carbamazepine] | 5 to 10 µg/mL | –
O=C(O)c1cn(C2CC2)c2cc(N3CCNCC3)c(F)cc2c1=O [Ciprofloxacin] | 0.1 to 8.3 µg/mL | Therapeutic window ([2]; Table D): 0.1 to 8.3 µg/mL
CN1C(=O)CC(=O)N(c2ccccc2)c2cc(Cl)ccc21 [Clobazam] | Varies, 0.2-5 ug/mL | –
O=C1CN=C(c2ccccc2Cl)c2cc([N+](=O)[O-])ccc2N1 [Clonazepam] | 20 to 80 µg/mL | –
CC(C)N(CCC(C(N)=O)(c1ccccc1)c1ccccn1)C(C)C (stereo not drawn) [Disopyramide] | 2 to 4 µg/mL | –
COc1cccc2c1C(=O)c1c(O)c3c(c(O)c1C2=O)C[C@@](O)(C(=O)CO)C[C@@H]3O[C@H]1C[C@H](N)[C@H](O)[C@H](C)O1 [Doxorubicin] | – | Therapeutic window ([2]; Table D): 10 to 58 µg/mL
CCC1(C)CC(=O)NC1=O (stereo not drawn) [Ethosuximide] | 40 to 100 µg/mL | –
COc1cc([C@@H]2c3cc4c(cc3[C@@H](O[C@@H]3O[C@@H]5CO[C@@H](C)O[C@H]5[C@H](O)[C@H]3O)[C@H]3COC(=O)[C@H]23)OCO4)cc(OC)c1O [Etopisode] | – | Therapeutic window ([2]; Table D): 1 to 10 µg/mL
NC(=O)OCC(COC(N)=O)c1ccccc1 [Felbamate] | 50 to 110 µg/mL | –
NCC1(CC(=O)O)CCCCC1 [Gabapentin] | 2 to 20 µg/mL | –
CCC(C)n1ncn(-c2ccc(N3CCN(c4ccc(OCC5COC(Cn6cncn6)(c6ccc(Cl)cc6Cl)O5)cc4)CC3)cc2)c1=O (stereo not drawn) [Itraconazole] | 0.5 to 17 µg/mL | Therapeutic window ([2]; Table D): 0.5 to 17 µg/mL
Nc1nnc(-c2cccc(Cl)c2Cl)c(N)n1 [Lamotrigine] | 2.5 to 15 µg/mL | –
CC[C@@H](C(N)=O)N1CCCC1=O [Levetiracetam] | 10 to 40 µg/mL | Window ([2]; Table D, In-depth list of candidate drugs, listed as Leveltiracetam): 20 to 40 µg/mL
CCN(CC)CC(=O)Nc1c(C)cccc1C [Lidocaine] | 1.5 to 5 µg/mL | –
CC(=O)NC[C@H]1CN(c2ccc(N3CCOCC3)c(F)c2)C(=O)O1 [Linezolid] | 1.75 to 7.53 µg/mL | Therapeutic window ([2]; Table D): 1.8 to 7.5 µg/mL
[Li] [Lithium] | 0.6-1.2 mEq/L | –
Cc1cccc(C)c1OCC(C)N (stereo not drawn) [Mexiletine] | 0.5 to 2.5 µg/mL | Therapeutic window ([2]; Table D): 0.5 to 2.5 µg/mL
COc1c(C)c2c(c(O)c1C/C=C(\C)CCC(=O)O)C(=O)OC2 [Mycophenolic Acid] | 1 to 4 µg/mL | Therapeutic window ([2]; Table D): 1 to 4 µg/mL
CCN(CC)CCNC(=O)c1ccc(NC(C)=O)cc1 [NAPA] | 4 to 8 µg/mL | Therapeutic window ([2]; Table D): 4 to 8 µg/mL
O=C1CN=C(c2ccccc2)c2cc([N+](=O)[O-])ccc2N1 [Nitrazepam] | 0.03 to 0.1 µg/mL | –
C1CCC(C(CC2CCCCN2)C2CCCCC2)CC1 (stereo not drawn) [Perhexeline] | 0.3 to 4 µg/mL | –

Compound | Window [2, 4] | further results
O=C1NC(=O)C(c2ccccc2)(c2ccccc2)N1 [Phenytoin] | 10 to 20 µg/mL | –
CC[C@@H]([C@H](C)O)n1ncn(-c2ccc(N3CCN(c4ccc(OC[C@@H]5CO[C@@](Cn6cncn6)(c6ccc(F)cc6F)C5)cc4)CC3)cc2)c1=O [Posaconazole] | ~0.7 µg/mL | Therapeutic window (μg/mL) ([2]; Table D): Maintain at 0.7 μg/mL
CCC1(c2ccccc2)C(=O)NCNC1=O [Primidone] | 5 to 12 µg/mL | –
C=C[C@H]1C[N@@]2CC[C@H]1C[C@@H]2[C@@H](O)c1ccnc2ccc(OC)cc12 [Quinidine] | 2 to 5 µg/mL | Therapeutic window ([2]; Table D): 2 to 5 µg/mL
CCc1c2c(nc3ccc(O)cc13)-c1cc3c(c(=O)n1C2)COC(=O)[C@]3(O)CC [SN-38, 7-ethyl-10-hydroxycampto-thecin] | – | concentration of SN-38 lower than that of Irinotecan [3]: over 30 times; more potent at inhibiting topoisomerase I than the parent Irinotecan (topoisomerase I): up to 1,000
O=C(O)c1ccccc1O [Salicylate] | 15 to 30 µg/mL | Therapeutic window ([2]; Table D): 15 to 30 µg/mL
CO[C@H]1C[C@@H]2CC[C@@H](C)[C@@](O)(O2)C(=O)C(=O)N2CCCC[C@H]2C(=O)O[C@H]([C@H](C)C[C@@H]2CC[C@@H](O)[C@H](OC)C2)CC(=O)[C@H](C)/C=C(\C)[C@@H](O)[C@@H](OC)C(=O)[C@H](C)C[C@H](C)/C=C/C=C/C=C/1C [Sirolimus] | 0.005 to 0.01 µg/mL | –
C=CC[C@@H]1/C=C(\C)C[C@H](C)C[C@H](OC)[C@H]2O[C@@](O)(C(=O)C(=O)N3CCCC[C@H]3C(=O)O[C@H](/C(C)=C/[C@@H]3CC[C@@H](O)[C@H](OC)C3)[C@H](C)[C@@H](O)CC1=O)[C@H](C)C[C@@H]2OC [Tacrolimus] | 5 to 20 µg/mL | –
Cn1c(=O)c2[nH]cnc2n(C)c1=O [Theophylline] | 5 to 15 µg/mL | –
Cc1ccsc1C(=CCCN1CCC[C@@H](C(=O)O)C1)c1sccc1C [Tiagibine] | 0.02 to 0.2 µg/mL | –
NC[C@H]1O[C@H](O[C@H]2[C@H](O)[C@@H](O[C@H]3O[C@H](CO)[C@@H](O)[C@H](N)[C@H]3O)[C@H](N)C[C@@H]2N)[C@H](N)C[C@@H]1O [Tobramicin] | 2 to 10 µg/mL | –
CC1(C)O[C@@H]2[C@@H](CO[C@@]3(COS(N)(=O)=O)OC(C)(C)O[C@@H]23)O1 [Topiramate] | 2 to 10 µg/mL | –
CCCC(CCC)C(=O)O [Valproic acid] | 50 to 125 µg/mL | –
CN[C@H](CC(C)C)C(=O)N[C@H]1C(=O)N[C@@H](CC(N)=O)C(=O)N[C@H]2C(=O)N[C@H]3C(=O)N[C@H](C(=O)N[C@H](C(=O)O)c4cc(O)cc(O)c4-c4cc3ccc4O)[C@H](O)c3ccc(c(Cl)c3)Oc3cc2cc(c3O[C@@H]2O[C@H](CO)[C@@H](O)[C@H](O)[C@H]2O[C@H]2C[C@](C)(N)[C@H](O)[C@H](C)O2)Oc2ccc(cc2Cl)[C@H]1O [Vancomycin] | 10 to 20 µg/mL | –
C=CC(N)CCC(=O)O (stereo not drawn) [Vigabratin] | 0.8 to 36 µg/mL | –
NS(=O)(=O)Cc1noc2ccccc12 [Zonisamide] | 10 to 40 µg/mL | –
Cc1nc(Nc2ncc(C(=O)Nc3c(C)cccc3Cl)s2)cc(N2CCN(CCO)CC2)n1 [dasatinib] | ~0.05 µg/mL | –
C#Cc1cccc(Nc2ncnc3cc(OCCOC)c(OCCOC)cc23)c1 [erlotinib] | – | Window [2, 5]: 100 to 150 mg/day
CNC(=O)c1cc(Oc2ccc(NC(=O)Nc3ccc(Cl)c(C(F)(F)F)c3)cc2)ccn1 [sorafenib] | – | Window [2, 5]: 800 mg/day
Adalimumab | – | Window ([2]; in vivo): 3.5 to 7 µg/mL
Certolizumab pegol: antibody for autoimmune diseases | – | Window ([2]; in vivo): 3 to 84 µg/mL
Infliximab: antibody for autoimmune diseases | – | Window ([2]; in vivo): ~3.8 µg/mL
Teicoplanin | 10 to 60 µg/mL | –
retuximab: cancer drug listed in Table D; not natively fluorescent, requires label | – | Window ([2]; in vivo): Maintain at 375 mg/m^2
